Experimental data: patent US12467917B2, “Reconstructing human early embryogenesis in vitro with pluripotent stem cells” (California Institute of Technology, priority 2021, dated 2025)

Assays:
Type in all cases: cell-based, human
hEPSC aggregates = experiment: PLC inhibition in hEPSC 3D cultures: immunofluorescence quantification of nuclear GATA3 and apical PARD6; details: hEPSC 3D cultures treated with 2 μM and 3 μM, vs control without inhibitor
Experimental: The PLC-Protein Kinase C (PKC) pathway controls cellular polarisation at early stages of mouse embryo development. hEPSC 3D cultures were treated with 2 μM and 3 μM of the PLC inhibitor, U73122. […] To confirm the relationship between polarisation and outer cell commitment, siRNA transfection was used to knockdown (KD) PLCB1 in order to deplete PLC activity in cells during 3D aggregation (FIG. 2F). The depletion of PLC activity was confirmed by qRT-PCR to confirm that RNAi depletion of PLCB1 was effective (FIG. 8C).
Post incubation on gelatin plates, cells were counted using a haemocytometer and a total of 7200 hEPSCs was added to 1 mL of media composed of 50% IVF media (Continuous Single Culture-NX Complete (CSCM-NXC)) (90168, FUJIFILM), 25% hEP media, and 25% hTS media. This media was also supplemented with CHIR99021 (2 μM), Y27632 (5 μM), BMP4 (20 ng/mL), FGF2 (40 ng/mL), and A83-01 (2 μM). […]
Fluorescence images were acquired with an inverted Leica SP8 confocal microscope (Leica Microsystems), using a Leica Fluotar VISIR 0.95 NA 25× objective. […] Digital quantifications and immunofluorescence signal intensity graphs were obtained using Fiji software.
Apical enrichment analysis: F-actin and PARD6 polarisation were measured in a single focal plane, by taking the middle plane of the aggregate. […] The apical/basal signal intensity ratio was calculated as: I (apical)/I (basal). […]

hEPSCs = experiment: Screening of growth factors and inhibitors in hEPSC 3D culture; details: grown for 5 days without the named substance (condition 2 / condition 3)
Experimental: Next, various growth factors, cytokines, and small molecules were screened at widely adopted concentrations, to identify conditions facilitating cavity and early-lineage formation in these structures (FIG. 7A-FIG. 7E). […] Additionally, the cells were pulsed with the ALK5 kinase inhibitor A83-01 (2 μM) to promote TE differentiation for the first 48h of 3D culture, and this inhibitor was removed after this time to avoid a complete loss in pluripotency. Concomitantly, the concentration of FGF2 was decreased by half (20 ng/ml) for the same purpose. Using this optimized condition, the emergence of cavitated structures was observed, 3 to 4 days after cell seeding (FIG. 1D).
Post incubation on gelatin plates, cells were counted using a haemocytometer and a total of 7200 hEPSCs was added to 1 mL of media composed of 50% IVF media (Continuous Single Culture-NX Complete (CSCM-NXC)) (90168, FUJIFILM), 25% hEP media, and 25% hTS media. This media was also supplemented with CHIR99021 (2 μM), Y27632 (5 μM), BMP4 (20 ng/mL), FGF2 (40 ng/mL), and A83-01 (2 μM). Cell suspensions were added dropwise to the Aggrewells. All wells without cells were filled with 1 mL PBS to humidify the local atmosphere to minimize evaporation. The AggreWell plate (24-well, 1200 Aggrewell format) was then centrifuged for 3 min at 100 g, and placed at 37° C. under hypoxic conditions (5% CO2 and 5% O2). […]

hEP-structures = experiment: Frequency of cavitated structures in WNT3A-supplemented 3D culture; details: day 6; WNT3A at 25 or 50 ng/mL added to culture media; vs control
Experimental: Post incubation on gelatin plates, cells were counted using a haemocytometer and a total of 7200 hEPSCs was added to 1 mL of media composed of 50% IVF media (Continuous Single Culture-NX Complete (CSCM-NXC)) (90168, FUJIFILM), 25% hEP media, and 25% hTS media. This media was also supplemented with CHIR99021 (2 μM), Y27632 (5 μM), BMP4 (20 ng/mL), FGF2 (40 ng/mL), and A83-01 (2 μM). Cell suspensions were added dropwise to the Aggrewells. All wells without cells were filled with 1 mL PBS to humidify the local atmosphere to minimize evaporation. The AggreWell plate (24-well, 1200 Aggrewell format) was then centrifuged for 3 min at 100 g, and placed at 37° C. under hypoxic conditions (5% CO2 and 5% O2). After 48h, media was removed from wells and replaced with fresh culture media as described above, although FGF2 concentration was lowered to 20 ng/ml and A83-01 was omitted. Cells were left to grow for an additional 48-72h until proper morphology was observed, at which point structures were fixed for immunostaining or transferred to IVC media (see below) for mimicking development beyond implantation stages.
Following completion of any given aggregation experiment (from day 4 to 6), all cystic structures clearly displaying a cavity were included in further analyses. Non-cavitated structures were excluded from downstream analyses.

With `COc1ccc2c(c1)CC[C@@H]1[C@@H]2CC[C@]2(C)[C@@H](NCCCCCCN3C(=O)C=CC3=O)CC[C@@H]12` [U73122] the “nuclear GATA3 signal intensity” value (hEPSC aggregates; normalized to DAPI) was “reduction” and the “apical enrichment of PARD6” value (hEPSC aggregates) was “decrease”.

For `Cc1c[nH]c(-c2cnc(NCCNc3ccc(C#N)cn3)nc2-c2ccc(Cl)cc2Cl)n1` [CHIR99021], the “cell survival in media without the substance” value (hEPSCs) was “failure of cell survival”.

For `C[C@@H](N)[C@H]1CC[C@H](C(=O)Nc2ccncc2)CC1.Cl.Cl` [Y-27632, trans-4-[(R)-1-Aminoethyl]-N-4-pyridinylcyclohexanecarboxamide dihydrochloride], the “cell survival in media without the substance” value (hEPSCs) was “failure of cell survival”.

B1: WNT3A: Wnt3a recombinant protein, WNT signaling pathway activator added to the culture media (protein, UniProt P56704 19-352, looked up)
Protein Wnt-3a: SYPIWWSLAVGPQYSSLGSQPILCASIPGLVPKQLRFCRNYVEIMPSVAEGIKIGIQECQHQFRGRRWNCTTVHDSLAIFGPVLDKATRESAFVHAIASAGVAFAVTRSCAEGTAAICGCSSRHQGSPGKGWKWGGCSEDIEFGGMVSREFADARENRPDARSAMNRHNNEAGRQAIASHMHLKCKCHGLSGSCEVKTCWWSQPDFRAIGDFLKDKYDSASEMVVEKHRESRGWVETLRPRYTYFKVPTERDLVYYEASPNFCEPNPETGSFGTRDRTCNVSSHGIDGCDLLCCGRGHNARAERRREKCRCVFHWCCYVSCQECTRVYDVHTCK
In the case of B1, the “yield (frequency) of cavitated structures” value (hEP-structures) is reported as “did not make any significant difference”.
